The nature of data set [1]: Antioxidant activity assessed as DPPH radical scavenging activity incubated for 30 mins in dark condition by spectrophotometrical analysis. It counts as functional.
The nature of data set [2]: Cytotoxicity against human WI-38 cells assessed as cell growth inhibition measured after 48 hrs by sulforhodamine B staining based analysis. The format is toxicity. In general terms: Sulforhodamine B stains cellular protein and so reports cell mass.
The subject of a further data set is NCI-H460. As to the kind of experiment: Anticancer activity against human NCI-H460 cells assessed as cell growth inhibition measured after 48 hrs by sulforhodamine B staining based analysis. It counts as functional.
Another data set concerns SF-268. As to the kind of experiment: Anticancer activity against human SF-268 cells assessed as cell growth inhibition measured after 48 hrs by sulforhodamine B staining based analysis. It counts as functional.
A further data set has as its system MCF7. As to the kind of experiment: Anticancer activity against human MCF7 cells assessed as cell growth inhibition measured after 48 hrs by sulforhodamine B staining based analysis. It counts as functional.
The next data set relates to Hepatitis C virus. Kind of data set: Antiviral activity against HCV GT-1b infected in human Huh-5-2 cells carrying HCV subgenomic replicons assessed as inhibition of viral replication by quantitative RT-PCR assay. The format is functional, organism-based, Hepacivirus hominis. Conditions: subtype 1b. (A replicon is a self-replicating genome or part of one, used to study replication in cells.)

A further data set concerns Shigella dysenteriae. As to the kind of experiment: Antibacterial activity against Shigella dysenteriae ATCC 49345 assessed as bacterial growth inhibition at 50 ug/ml incubated for 24 hrs relative to control. It counts as functional. Set-up: scale not given: the % may be the effect or the level left. Conditions: dose 50 µg/ml.
Another data set concerns Salmonella typhi. As to the kind of experiment: Antibacterial activity against Salmonella typhi ATCC 11778 assessed as bacterial growth inhibition at 50 ug/ml incubated for 24 hrs relative to control. The format is functional, Salmonella enterica subsp. enterica serovar Typhi. Details: scale not given: the % may be the effect or the level left. The following applies: dose 50 µg/ml.

For data set [3], the system named is Pseudomonas aeruginosa. As to the kind of experiment: Antibacterial activity against Pseudomonas aeruginosa assessed as zone of inhibition at 1000 ug/ml measured after 24 hrs by cup plate method. The format is functional. The following applies: read-out: DIZ.
A further data set concerns Bacillus subtilis. Kind of data set: Antibacterial activity against Bacillus subtilis assessed as zone of inhibition at 1000 ug/ml measured after 24 hrs by cup plate method. The format is functional. The following applies: read-out: DIZ.
Data set [4] relates to Staphylococcus aureus. As to the kind of experiment: Antibacterial activity against Staphylococcus aureus assessed as zone of inhibition at 1000 ug/ml measured after 24 hrs by cup plate method. Conditions: read-out: DIZ. It counts as functional.
The test system of the next data set is Aspergillus niger. As to the kind of experiment: Antifungal activity against Aspergillus niger assessed as zone of inhibition at 1000 ug/ml measured after 24 hrs by cup plate method. It counts as functional. The following applies: read-out: DIZ.
The subject of the next data set is Aspergillus terreus. Kind of data set: Antifungal activity against Aspergillus terreus assessed as zone of inhibition at 1000 ug/ml measured after 24 hrs by cup plate method. It counts as functional. Conditions: read-out: DIZ.
Another data set concerns Escherichia coli. Kind of data set: Antibacterial activity against Escherichia coli assessed as zone of inhibition at 1000 ug/ml measured after 24 hrs by cup plate method. Conditions: read-out: DIZ. It counts as functional.
The next data set concerns Rattus norvegicus. As to the kind of experiment: Antiinflammatory activity in formalin induced fasted albino rat paw oedema model assessed as inhibition of paw oedema at 100 mg/kg, po measured after 4 hrs by plethysmograph analysis relative to control. It counts as functional. Set-up: scale not given: the % may be the effect or the level left.
The next data set has as its system Aspergillus flavus. As to the kind of experiment: Antifungal activity against Aspergillus flavus assessed as zone of inhibition at 1000 ug/ml measured after 24 hrs by cup plate method. The format is functional. The following applies: read-out: DIZ.
The target in a further data set is Carbonic anhydrase 2 (Homo sapiens, UniProt P00918). As to the kind of experiment: Inhibition of human carbonic anhydrase-2 by stopped flow CO2 hydrase assay.
Another data set has as its target Carbonic anhydrase 1 (Homo sapiens, UniProt P00915). As to the kind of experiment: Inhibition of human carbonic anhydrase-1 by stopped flow CO2 hydrase assay.
Another data set deals with HeLa. Kind of data set: Anticancer activity against human HeLa cells assessed as cell growth inhibition by SRB method. The format is functional.
Data set [5] concerns Staphylococcus aureus. As to the kind of experiment: Antibacterial activity against beta lactamase positive Staphylococcus aureus ATCC 25923 assessed as zone of inhibition at 0.5 mg/ml incubated for 18 hrs by Kirby-Bauer disk diffusion method. The following applies: read-out: DIZ. The format is functional. (In general: In agar diffusion tests the substance spreads into inoculated agar from a disc or well.)

A further data set relates to Sprivivirus cyprinus. As to the kind of experiment: Antiviral activity against Carp sprivivirus infected Fathead minnow EPC cells assessed as assessed as suppression of virus-induced cytopathic effect incubated for 48 hrs by CCK-8 assay. The format is functional, organism-based.
The subject of data set [6] is Pseudomonas aeruginosa. Kind of data set: Antibacterial activity against Pseudomonas aeruginosa assessed as cell growth inhibition measured after 24 hrs by serial broth-dilution method. The format is functional.

Values after ≈ are worked out from the molar mass of the structure shown.

The values below come from ChEMBL document CHEMBL5126506, “Coumarin-benzimidazole hybrids: A review of developments in medicinal chemistry” (Eur J Med Chem, 2022).

Carbonic anhydrase 1, sequence (P00915 whole entry): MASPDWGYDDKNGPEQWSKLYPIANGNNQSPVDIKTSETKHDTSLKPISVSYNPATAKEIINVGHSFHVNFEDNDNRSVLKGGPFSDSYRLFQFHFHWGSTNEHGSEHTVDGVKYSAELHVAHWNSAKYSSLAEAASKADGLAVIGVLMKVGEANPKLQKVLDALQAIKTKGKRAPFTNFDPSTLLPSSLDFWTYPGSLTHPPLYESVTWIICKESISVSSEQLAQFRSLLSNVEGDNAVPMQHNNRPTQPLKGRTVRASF

As for `O=C(Cc1cc(=O)oc2c([N+](=O)[O-])cccc12)Nc1nc2ccccc2[nH]1`, the EC50 in data set [1] was found to be 0.08 µM.
For `O=c1oc2ccccc2c2cc(O)n3c4ccccc4nc3c12`, in [2], the GI50 at 48 h was found to be 28.2 µM. In addition, the GI50 in the data set on NCI-H460 was 29 µM; in the data set with SF-268, 20.6 µM; in the data set with MCF7, 44 µM.
With `CC(=O)OC[C@H]1O[C@@H](n2c(SCc3cc4ccccc4oc3=O)nc3cc(Cl)c(Cl)cc32)[C@H](OC(C)=O)[C@@H](OC(C)=O)[C@@H]1OC(C)=O`, in the data set with Hepatitis C virus, the concentration giving a half-maximal response (EC50) worked out at 3.1 µM.
Consider `O=c1oc2ccc(Cl)cc2cc1CSc1nc2ccc([N+](=O)[O-])cc2[nH]1`, for which the Activity with Shigella dysenteriae and in the data set on Salmonella typhi was 100% throughout.
For the compound `O=c1oc2ccc(Br)cc2cc1CSc1nc2ccccc2[nH]1`, the Activity with Shigella dysenteriae and in the data set on Salmonella typhi was 100% in each case. Further, in the data set with Hepatitis C virus, the EC50 was 4 µM.
As for `O=C1CSC(c2cc3ccc(O)cc3oc2=O)N1Nc1nc2ccccc2[nH]1` (stereo unspecified), the zone of inhibition at 1000 µg/mL with Pseudomonas aeruginosa [3], in the data set with Bacillus subtilis, in the data set with Staphylococcus aureus [4], with Aspergillus niger, in the data set on Aspergillus terreus and with Escherichia coli was 13 mm each time. Further, the zone of inhibition at 1000 µg/mL in the data set with Aspergillus flavus was found to be 13 mm. The Activity with Rattus norvegicus is on record as 48%.
Consider `O=c1cc(C[n+]2cn(Cc3ccc4ccccc4c3)c3ccccc32)c2ccc(O)cc2o1`, for which the results for the IC50 at Carbonic anhydrase 2 and against Carbonic anhydrase 1 were 6.01 µM and 5.34 µM, respectively.
In the case of `O=c1oc2cc(O)ccc2cc1/C=N/Nc1nc2ccccc2[nH]1`, the zone of inhibition at 1000 µg/mL in the data set on Pseudomonas aeruginosa [3], in the data set on Bacillus subtilis, in the data set with Staphylococcus aureus [4], in the data set on Aspergillus niger, with Aspergillus terreus and with Escherichia coli was 13 mm each time. Besides, in the data set on Aspergillus flavus, the zone of inhibition at 1000 µg/mL is 13 mm. For the same compound, the Activity in the data set on Rattus norvegicus is 39%.
Take `O=c1oc2ccc(Br)cc2cc1CSc1nc2cc(F)ccc2[nH]1`: in the data set with Hepatitis C virus, the EC50 worked out at 3.4 µM.
Still for that read-out and setting: the result for `COc1cccc2cc(CSc3nc4cc(Cl)c(Cl)cc4[nH]3)c(=O)oc12` reads 3.6 µM.
As for `Cc1c(C2SCC(=O)N2Nc2nc3ccccc3[nH]2)c(=O)oc2cc(O)ccc12` (stereo unspecified), the zone of inhibition at 1000 µg/mL in the data set with Pseudomonas aeruginosa [3], in the data set on Bacillus subtilis, in the data set with Staphylococcus aureus [4], in the data set with Aspergillus niger, in the data set on Aspergillus terreus and in the data set with Escherichia coli was 13 mm throughout. Moreover, in the data set on Aspergillus flavus, the zone of inhibition at 1000 µg/mL was 13 mm. In the data set on Rattus norvegicus, the Activity came to 20%.
`O=c1cc(Cc2nc3ccccc3[nH]2)c2cccc([N+](=O)[O-])c2o1`: the EC50 in [1] stood at 0.17 µM.
As to `COc1ccc2oc(=O)cc(-c3nc4ccccc4n3S(=O)(=O)c3ccc(C)cc3)c2c1`, the GI50 in the data set with HeLa was 35 µg/mL (≈ 78.4 µM).
In the case of `O=c1oc2ccccc2c(O)c1S(=O)(=O)Nc1nc2ccccc2[nH]1`, the zone of inhibition at 500 µg/mL in the data set on Staphylococcus aureus [5] was 13 mm.
Take `CC(=O)n1c(-c2cc3ccccc3oc2=O)nc2ccccc21`: in data set [2], the GI50 at 48 h is > 100 µM. Also, the GI50 with NCI-H460 amounted to 36.5 µM; in the data set with SF-268 it was 31.5 µM; with MCF7 it was 22.7 µM.
Take `O=c1ccc2cc(OCCCCn3cnc4ccccc43)ccc2o1`: the IC50 in the data set on Sprivivirus cyprinus turned out to be 0.56 µg/mL (≈ 1.67 µM).
As for `O=C1O[C@H]([C@@H](O)CO)C(O)=C1O` [ASCORBIC ACID], the EC50 in [1] stood at 0.03 µM.
Same read-out and setting: in the case of `Cc1cc(C(C)(C)C)c(O)c(C(C)(C)C)c1` [BUTYLATED HYDROXYTOLUENE] it was 23.4 µM.
Consider `CO[C@@H]1[C@@H](OC(N)=O)[C@@H](O)[C@H](Oc2ccc3c(O)c(NC(=O)c4ccc(O)c(CC=C(C)C)c4)c(=O)oc3c2C)OC1(C)C` [NOVOBIOCIN], for which the zone of inhibition at 500 µg/mL in the data set on Staphylococcus aureus [5] is 25 mm.
Turning to `CN[C@@H]1[C@H](O[C@H]2[C@H](O[C@H]3[C@H](O)[C@@H](O)[C@H](N=C(N)N)[C@@H](O)[C@@H]3N=C(N)N)O[C@@H](C)[C@]2(O)C=O)O[C@@H](CO)[C@H](O)[C@H]1O` [STREPTOMYCIN], the MIC in the data set with Pseudomonas aeruginosa [6] was found to be 2200 µg/mL (≈ 3780 µM).

Usually EC50 stands for the concentration giving half of the maximal effect. As usually defined, the GI50 is the concentration that inhibits growth by half. Usually IC50 stands for the concentration at which inhibition is half-maximal. As usually defined, the MIC is the smallest concentration in the dilution series that meets the test's criterion for growth inhibition.
